Columns and labels:
[1] = molecular target: T1, human CaSR (Homo sapiens, UniProt P41180); test: Calcium receptor (CaSR) activation activity: calcium imaging in HEK 293 cells expressing human CaSR; format: cell-based; conditions: concentration giving 50% of the maximal activity; single values n = 1, others n = 2 or 3
T1 construct: expressed in transfected cells; host or cells: HEK 293 cells, transient transfection of a CMV-promoter expression vector
T1 sequence (P41180 20-1078): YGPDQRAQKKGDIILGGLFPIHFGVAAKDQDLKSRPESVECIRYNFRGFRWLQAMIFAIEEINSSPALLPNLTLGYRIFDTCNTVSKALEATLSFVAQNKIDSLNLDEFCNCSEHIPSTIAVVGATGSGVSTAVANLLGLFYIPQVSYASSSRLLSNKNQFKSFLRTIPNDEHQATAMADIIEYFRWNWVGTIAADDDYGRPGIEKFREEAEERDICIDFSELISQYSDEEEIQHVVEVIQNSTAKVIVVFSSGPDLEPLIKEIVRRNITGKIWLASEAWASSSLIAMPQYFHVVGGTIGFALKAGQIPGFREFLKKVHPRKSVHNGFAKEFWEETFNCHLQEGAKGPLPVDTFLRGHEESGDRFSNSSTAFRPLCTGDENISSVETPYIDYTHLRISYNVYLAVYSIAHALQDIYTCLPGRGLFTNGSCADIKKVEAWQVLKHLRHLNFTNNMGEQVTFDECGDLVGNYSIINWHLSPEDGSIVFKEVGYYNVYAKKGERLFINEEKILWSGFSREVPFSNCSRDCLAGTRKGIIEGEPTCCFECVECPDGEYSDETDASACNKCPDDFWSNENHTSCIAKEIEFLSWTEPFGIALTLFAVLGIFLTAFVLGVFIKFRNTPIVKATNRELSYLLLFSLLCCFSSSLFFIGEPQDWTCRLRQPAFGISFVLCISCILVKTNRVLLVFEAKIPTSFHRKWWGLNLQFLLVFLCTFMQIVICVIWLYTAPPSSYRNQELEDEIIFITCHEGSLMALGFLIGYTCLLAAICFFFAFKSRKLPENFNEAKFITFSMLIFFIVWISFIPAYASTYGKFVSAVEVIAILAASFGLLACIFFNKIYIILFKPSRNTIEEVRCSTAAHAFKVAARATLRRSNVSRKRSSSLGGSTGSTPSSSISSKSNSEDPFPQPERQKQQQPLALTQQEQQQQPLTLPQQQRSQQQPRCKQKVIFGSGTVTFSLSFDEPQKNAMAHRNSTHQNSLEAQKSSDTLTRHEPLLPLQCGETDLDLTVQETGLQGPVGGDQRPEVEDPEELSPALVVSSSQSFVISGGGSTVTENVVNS
Procedure: Calcium receptor (CaSR) activation activity of peptides obtained in Examples 2, 3, and 5-12 were measured as follows. A cDNA of human CaSR obtained in Example 1 of WO2007/055393A1 was inserted into an expression vector for an animal cell having a CMV promoter, and the cDNA in the vector was introduced into HEK 293 cells, which had multiplied to 70% of the maximal cell density, using FuGINE6 (Roche Ltd.). After culturing the cells for 4 to 48 hours, 0.6-1.0×10^5 of cells/well were disseminated into a 96-well plate, subsequently, the cells were cultured for one day, and then stained using Calcium 3 Assay Kit. The presence or absence of a calcium receptor activation activity of each peptide was confirmed by a calcium imaging method using FLEXSTATION (Molecular Devices Inc., instruction manual). Furthermore, the concentration of each peptide giving 50% of the maximal activity (EC50) was calculated using a dose characteristic curve.

[2] = Quantitative sensory evaluation test of kokumi-imparting activity in water with sodium glutamate, inosine monophosphate and sodium chloride; format: in vivo, human; set-up: key: *: Unmeasurable: Kokumi-imparting activity was too strong and could not be measured by the sensory evaluation
Procedure: Sample solutions that became acidic after dissolution of the samples were adjusted to pH 6.8 to 7.2 with NaOH before use. Sensory evaluation scores were used for evaluation based on the control sample (0 points) and the glutathione sample (3 points), and the test was performed with n=3.
The sample solutions that became acidic after dissolution of the samples were adjusted to pH 6.8 to 7.2 with NaOH before use. Sensory evaluation scores were used for evaluation based on the control sample (0 points) and the glutathione sample (3 points), and the test was performed with n=5.
Sample solutions that became acidic after dissolution of the samples were adjusted to pH 6.8 to 7.2 with NaOH before use. Sensory evaluation scores were used for evaluation based on the control sample (0 points) and the glutathione sample (3 points), and the test was performed with n=12.

[3] = Quantitative sensory evaluation test: imparting kokumi to consomme soup; format: in vivo, human; conditions: n=12, 0 control, 3 intense, 5 extremely intense
Procedure: The intensity of activity for imparting kokumi to consomme soup of each peptide having confirmed calcium receptor activation activity was measured by a quantitative sensory evaluation test, performed as follows: Consomme soup was prepared by dissolving consomme soup powder (35% of sodium chloride, 18% of sodium glutamate, 0.2% of inosine monophosphate, 0.3% of white pepper powder, 0.5% of black pepper powder, 8.0% of beef extract powder, 3.0% of white wine powder, 2.0% of celery powder, 8.0% of Chinese cabbage extract powder, 2.5% of onion extract powder, […]) at a concentration of 5 g/dl. To this consomme soup, samples of either γ-Glu-Cys-Gly (glutathione) or γ-Glu-Val-Gly was added to a concentration of 0.0001 to 1 g/dl, and the intensity of the kokumi-imparting activity was measured for each sample. The consomme soup with the samples that became acidic after dissolution of the samples with respect to the consomme soup without the samples was adjusted with NaOH to pH not lower or higher by 0.2 than pH of the consomme soup without the samples before use. Sensory evaluation scores were used for evaluation as follows: 0 points for the control sample, 3 points for intense activity as compared to the control, and 5 points for extremely intense activity as compared to the control, and the test was performed with n=12.

[4] = Quantitative sensory evaluation test: imparting kokumi to curry sauce; format: in vivo, human; conditions: n=12, 0 control, 3 intense, 5 extremely intense
Procedure: The intensity of the activity for imparting kokumi to curry sauce of each peptide having confirmed calcium receptor activation activity was measured by a quantitative sensory evaluation test, performed as follows: to curry sauce prepared in a conventional manner by using commercially available curry roux, samples of either γ-Glu-Cys-Gly (glutathione) or γ-Glu-Val-Gly were added to a concentration of 0.0001 to 1 g/dl, and the intensity of kokumi-imparting activity was measured for each sample. The curry sauces with the samples that became acidic after dissolution of the samples with respect to the curry soup without the samples were adjusted with NaOH to pH not lower or higher by 0.2 than pH of the curry soup without the samples before use. Sensory evaluation scores were used to evaluate as follows: 0 points for the control sample, 3 points for intense activity as compared to the control, and 5 points for extremely intense activity as compared to the control, and the test was performed with n=12.

[5] = Table 6, 0.01 g/dl, n=5, control 0, glutathione 3 points
[6] = Table 7, 0.01 g/dl, n=12, control 0, glutathione 3 points
[7] = Table 5, 0.1 g/dl, n=3, control 0, glutathione 3 points
[8] = Table 6, 0.1 g/dl, n=5, control 0, glutathione 3 points
[9] = Table 7, 0.1 g/dl, n=12, control 0, glutathione 3 points

CC(C)[C@H](NC(=O)CC[C@H](N)C(=O)O)C(=O)NCC(=O)O [γ-Glu-Val-Gly]
2.5 points: Intensity of kokumi: First and middle taste ([3]; 0.0005 g/dl) | Intensity of kokumi: First and middle taste ([4]; 0.001 g/dl)
*: Intensity of kokumi: Aftertaste ([2]; Table 6, 0.1 g/dl, n=5) | Intensity of kokumi: First and middle taste ([2]; Table 6, 0.1 g/dl, n=5)
5.0 points: Intensity of kokumi: Aftertaste ([3]; 0.01 g/dl) | Intensity of kokumi: First and middle taste ([3]; 0.01 g/dl) | Intensity of kokumi: Aftertaste ([3]; 0.1 g/dl) | Intensity of kokumi: First and middle taste ([3]; 0.1 g/dl) | Intensity of kokumi: Aftertaste ([4]; 0.01 g/dl) | Intensity of kokumi: First and middle taste ([4]; 0.01 g/dl) | Intensity of kokumi: Aftertaste ([4]; 0.1 g/dl) | Intensity of kokumi: First and middle taste ([4]; 0.1 g/dl)
23 to 55 nM: EC50 [1]
4.0 points: Intensity of kokumi: Aftertaste ([4]; 0.005 g/dl)
3.5 points: Intensity of kokumi: Aftertaste ([3]; 0.001 g/dl) | Intensity of kokumi: First and middle taste ([4]; 0.005 g/dl)
3.0 points: Intensity of kokumi: Aftertaste [2, 5] | Intensity of kokumi: First and middle taste [2, 5] | Intensity of kokumi: Aftertaste [2, 6] | Intensity of kokumi: First and middle taste [2, 6] | Intensity of kokumi: Aftertaste ([3]; 0.0005 g/dl) | Intensity of kokumi: First and middle taste ([3]; 0.001 g/dl) | Intensity of kokumi: Aftertaste ([4]; 0.001 g/dl)

N[C@@H](CCC(=O)N[C@@H](CS)C(=O)NCC(=O)O)C(=O)O [γ-Glu-Cys-Gly, reference compound]
3.0 points: Intensity of kokumi: Aftertaste [2, 7] | Intensity of kokumi: First and middle taste [2, 7] | Intensity of kokumi: Aftertaste [2, 8] | Intensity of kokumi: First and middle taste [2, 8] | Intensity of kokumi: Aftertaste [2, 9] | Intensity of kokumi: First and middle taste [2, 9] | Intensity of kokumi: Aftertaste ([3]; 0.01 g/dl) | Intensity of kokumi: First and middle taste ([3]; 0.01 g/dl) | Intensity of kokumi: Aftertaste ([4]; 0.01 g/dl) | Intensity of kokumi: First and middle taste ([4]; 0.01 g/dl)
